Non-standard residues stand in square brackets, D forms with d. Residues, ends and D or L forms follow the SMILES beside them. Ac6c = NC1(C(=O)O)CCCCC1; Aib = CC(C)(N)C(=O)O
Target: T1, PTH receptor present on SaOS-2 (human osteosarcoma cells) (Homo sapiens, UniProt Q03431)
T1 construct: host or cells: SaOS-2 human osteosarcoma cells (intact, confluent monolayers)
T1 sequence (Q03431 27-593): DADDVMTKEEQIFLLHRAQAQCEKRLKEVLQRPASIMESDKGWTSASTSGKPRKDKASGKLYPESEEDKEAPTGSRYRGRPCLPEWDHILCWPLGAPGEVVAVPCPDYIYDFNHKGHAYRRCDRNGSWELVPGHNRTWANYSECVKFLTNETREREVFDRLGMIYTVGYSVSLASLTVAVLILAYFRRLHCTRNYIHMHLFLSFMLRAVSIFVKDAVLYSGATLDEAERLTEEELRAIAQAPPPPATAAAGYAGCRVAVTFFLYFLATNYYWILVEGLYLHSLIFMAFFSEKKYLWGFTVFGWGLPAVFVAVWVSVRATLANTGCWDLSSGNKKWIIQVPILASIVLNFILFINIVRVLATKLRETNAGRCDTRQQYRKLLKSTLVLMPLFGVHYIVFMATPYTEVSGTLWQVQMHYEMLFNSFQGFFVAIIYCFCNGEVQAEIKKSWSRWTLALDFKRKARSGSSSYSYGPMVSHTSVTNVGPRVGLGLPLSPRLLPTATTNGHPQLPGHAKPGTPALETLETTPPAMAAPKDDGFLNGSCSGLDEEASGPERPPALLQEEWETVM
Assay: Binding to PTH receptor on SaOS-2 cells (competition with mono-125I-[Nle8,18,Tyr34(3-125I)]bPTH(1-34)NH2)
Conditions: Table II, 2 hrs at room temperature, read-out: Kd (half maximal inhibition of binding of mono-125I-[Nle8,18, Tyr34(3-125I)]bPTH(1-34)NH2)
Method in brief: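 Confluent SaOS-2 cells in 5% FBS RPMI were incubated 2 h at room temperature with 10×10^4 cpm mono-125I-[Nle8,18,Tyr34(3-125I)]bPTH(1-34)NH2 plus competing peptide at 10^−11 to 10^−4 M. After washing, cell-bound radioactivity was counted; Kd taken as half-maximal inhibition of tracer binding.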

Work on `CC[C@H](C)[C@H](NC(=O)[C@H](CO)NC(=O)[C@H](CCCCN)NC(=O)CNC(=O)[C@H](CCCCN)NC(=O)[C@H](CC(=O)O)NC(=O)[C@H](Cc1c[nH]cn1)NC(=O)[C@H](CC(C)C)NC(=O)[C@H](CC(C)C)NC(=O)[C@H](CCC(N)=O)NC(=O)[C@H](Cc1c[nH]cn1)NC(=O)[C@H](CCC(=O)O)NC(=O)[C@H](CO)NC(=O)[C@@H](NC(=O)[C@H](C)N)C(C)C)C(=O)N[C@@H](CCC(N)=O)C(=O)N[C@@H](CC(=O)O)C(=O)N[C@@H](CC(C)C)C(=O)N[C@@H](CCCNC(=N)N)C(=O)N[C@@H](CCCNC(=N)N)C(=O)N[C@@H](CCCNC(=N)N)C(=O)N[C@@H](CCC(=O)O)C(=O)N[C@@H](CC(C)C)C(=O)N[C@@H](CC(C)C)C(=O)N[C@@H](CCC(=O)O)C(=O)N[C@@H](CCCCN)C(=O)N[C@@H](CC(C)C)C(=O)N[C@@H](CC(C)C)C(=O)N[C@@H](CCC(=O)O)C(=O)NC1(C(=O)N[C@@H](CC(C)C)C(=O)N[C@@H](Cc2c[nH]cn2)C(=O)N[C@H](C(=O)N[C@@H](C)C(N)=O)[C@@H](C)O)CCCCC1` [[Glu^22,25,29, Leu^23,28,31, Lys^26, Ahc^30]hPTHrP(1-34)NH2] (H-AVSEHQLLHDKGKSIQDLRRRELLEKLLE[Ac6c]LHTA-NH2; N-terminus assumed) yielded a Kd of 230 nM.
`CC[C@H](C)[C@H](NC(=O)[C@H](CO)NC(=O)[C@H](CCCCN)NC(=O)CNC(=O)[C@H](CCCCN)NC(=O)[C@H](CC(=O)O)NC(=O)[C@H](Cc1c[nH]cn1)NC(=O)[C@H](CC(C)C)NC(=O)[C@H](CC(C)C)NC(=O)[C@H](CCC(N)=O)NC(=O)[C@H](Cc1c[nH]cn1)NC(=O)[C@H](CCC(=O)O)NC(=O)[C@H](CO)NC(=O)[C@@H](NC(=O)[C@H](C)N)C(C)C)C(=O)N[C@@H](CCC(N)=O)C(=O)N[C@@H](CC(=O)O)C(=O)N[C@@H](CC(C)C)C(=O)N[C@@H](CCCNC(=N)N)C(=O)N[C@@H](CCCNC(=N)N)C(=O)N[C@@H](CCCNC(=N)N)C(=O)N[C@@H](CCC(=O)O)C(=O)NC1(C(=O)N[C@@H](CC(C)C)C(=O)N[C@@H](CCC(=O)O)C(=O)N[C@@H](CCCCN)C(=O)N[C@@H](CC(C)C)C(=O)N[C@@H](CC(C)C)C(=O)NC(C)(C)C(=O)N[C@@H](CCCCN)C(=O)N[C@@H](CC(C)C)C(=O)N[C@@H](Cc2c[nH]cn2)C(=O)N[C@H](C(=O)N[C@@H](C)C(N)=O)[C@@H](C)O)CCCCC1` [[Glu^22,25, Ahc^23, Lys^26,30, Leu^28,31, Aib^29]hPTHrP(1-34)NH2] (H-AVSEHQLLHDKGKSIQDLRRRE[Ac6c]LEKLL[Aib]KLHTA-NH2; N-terminus assumed) was tested, and the Kd was 70 nM.
With `CC[C@H](C)[C@H](NC(=O)[C@H](CO)NC(=O)[C@H](CCCCN)NC(=O)CNC(=O)[C@H](CCCCN)NC(=O)[C@H](CC(=O)O)NC(=O)[C@H](Cc1c[nH]cn1)NC(=O)[C@H](CC(C)C)NC(=O)[C@H](CC(C)C)NC(=O)[C@H](CCC(N)=O)NC(=O)[C@H](Cc1c[nH]cn1)NC(=O)[C@H](CCC(=O)O)NC(=O)[C@H](CO)NC(=O)[C@@H](NC(=O)[C@H](C)N)C(C)C)C(=O)N[C@@H](CCC(N)=O)C(=O)N[C@@H](CC(=O)O)C(=O)N[C@@H](CC(C)C)C(=O)N[C@@H](CCCNC(=N)N)C(=O)N[C@@H](CCCNC(=N)N)C(=O)N[C@@H](CCCNC(=N)N)C(=O)N[C@@H](CCC(=O)O)C(=O)N[C@@H](CC(C)C)C(=O)NC1(C(=O)N[C@@H](CCC(=O)O)C(=O)N[C@@H](CCCCN)C(=O)N[C@@H](CC(C)C)C(=O)N[C@@H](CC(C)C)C(=O)NC(C)(C)C(=O)N[C@@H](CCCCN)C(=O)N[C@@H](CC(C)C)C(=O)N[C@@H](Cc2c[nH]cn2)C(=O)N[C@H](C(=O)N[C@@H](C)C(N)=O)[C@@H](C)O)CCCCC1` [[Glu^22,25, Leu^23,28,31, Ahc^24, Lys^26,30, Aib^29]hPTHrP(1-34)NH2] (H-AVSEHQLLHDKGKSIQDLRRREL[Ac6c]EKLL[Aib]KLHTA-NH2; N-terminus assumed) the Kd was 6 nM.
`CC[C@H](C)[C@H](NC(=O)[C@H](CO)NC(=O)[C@H](CCCCN)NC(=O)CNC(=O)[C@H](CCCCN)NC(=O)[C@H](CC(=O)O)NC(=O)[C@H](Cc1c[nH]cn1)NC(=O)[C@H](CC(C)C)NC(=O)[C@H](CC(C)C)NC(=O)[C@H](CCC(N)=O)NC(=O)[C@H](Cc1c[nH]cn1)NC(=O)[C@H](CCC(=O)O)NC(=O)[C@H](CO)NC(=O)[C@@H](NC(=O)[C@H](C)N)C(C)C)C(=O)N[C@@H](CCC(N)=O)C(=O)N[C@@H](CC(=O)O)C(=O)N[C@@H](CC(C)C)C(=O)N[C@@H](CCCNC(=N)N)C(=O)N[C@@H](CCCNC(=N)N)C(=O)N[C@@H](CCCNC(=N)N)C(=O)N[C@@H](CCC(=O)O)C(=O)N[C@@H](CC(C)C)C(=O)N[C@@H](CC(C)C)C(=O)N[C@@H](CCC(=O)O)C(=O)N[C@@H](CCCCN)C(=O)NC1(C(=O)N[C@@H](CC(C)C)C(=O)NC(C)(C)C(=O)N[C@@H](CCCCN)C(=O)N[C@@H](CC(C)C)C(=O)N[C@@H](Cc2c[nH]cn2)C(=O)N[C@H](C(=O)N[C@@H](C)C(N)=O)[C@@H](C)O)CCCCC1` [[Glu^22,25, Leu^23,28,31, Lys^26,30, Ahc^27, Aib^29]hPTHrP(1-34)NH2] (H-AVSEHQLLHDKGKSIQDLRRRELLEK[Ac6c]L[Aib]KLHTA-NH2; N-terminus assumed) showed a Kd of 230 nM.
In the case of `CC[C@H](C)[C@H](NC(=O)[C@H](CO)NC(=O)[C@H](CCCCN)NC(=O)CNC(=O)[C@H](CCCCN)NC(=O)[C@H](CC(=O)O)NC(=O)[C@H](Cc1c[nH]cn1)NC(=O)[C@H](CC(C)C)NC(=O)[C@H](CC(C)C)NC(=O)[C@H](CCC(N)=O)NC(=O)[C@H](Cc1c[nH]cn1)NC(=O)[C@H](CCC(=O)O)NC(=O)[C@H](CO)NC(=O)[C@@H](NC(=O)[C@H](C)N)C(C)C)C(=O)N[C@@H](CCC(N)=O)C(=O)N[C@@H](CC(=O)O)C(=O)N[C@@H](CC(C)C)C(=O)N[C@@H](CCCNC(=N)N)C(=O)N[C@@H](CCCNC(=N)N)C(=O)N[C@@H](CCCNC(=N)N)C(=O)N[C@@H](CCC(=O)O)C(=O)N[C@@H](CC(C)C)C(=O)N[C@@H](CC(C)C)C(=O)N[C@@H](CCC(=O)O)C(=O)N[C@@H](CCCCN)C(=O)N[C@@H](CC(C)C)C(=O)N[C@@H](CC(C)C)C(=O)NC(C)(C)C(=O)N[C@@H](CCCCN)C(=O)NC1(C(=O)N[C@@H](Cc2c[nH]cn2)C(=O)N[C@H](C(=O)N[C@@H](C)C(N)=O)[C@@H](C)O)CCCCC1` [[Glu^22,25, Leu^23,28, Lys^26,30, Aib^29, Ahc^31]hPTHrP(1-34)NH2] (H-AVSEHQLLHDKGKSIQDLRRRELLEKLL[Aib]K[Ac6c]HTA-NH2), the Kd is reported as 200 nM.
